In experiment [1] the test system is SK-N-MC neuroepithelioma cell line. Put plainly: MTT anti-proliferative assay in SK-N-MC cells. It is filed as cell-based, human. The settings on record: Homo sapiens, 72 h at 37° C., mean±SD (3 experiments). How it is done: The cells were maintained in minimum essential media (MEM; Invitrogen, CA, USA) which contained 10% fetal calf serum (FCS; JRH Biosciences, Kansas, USA), 1% non-essential amino acids (Gibco, Victoria, Australia), 1% penicillin/streptomycin/glutamine (Gibco, VIC, Australia) and fungizone ([…]; Squibb Pharmaceuticals, Montreal, Canada).
The ability of the compounds to inhibit cellular proliferation was assessed initially in SK-N-MC cells by the MTT assay.
Table 1. […] Cells were seed and allowed to attach to wells for 24 h and then incubated for 72 h at 37° C. with control medium or the chelators.
For orientation: Tetrazolium assays rely on reduction of a dye to a coloured formazan, in cell work by metabolically active cells.

Experiment [2] concerns MIAPaCa-2 pancreatic cancer cells. Put plainly: MTT proliferation assay, MIAPaCa-2. Particulars: Homo sapiens, MIA PaCa-2; MIAPaCa-2, MTT, 72 h. It is filed as cell-based. How it is done: (§1) The pancreatic cancer cell lines, including MIAPaCa-2, PANC 1, CAPAN-2 and CFPAC-1 were a generous gift from Prof. Andrew Biankin (Garvan Institute, NSW, Australia). The MIAPaCa-2, PANC 1 and CFPAC-1 cell lines were grown in DMEM medium (Invitrogen) and CAPAN-2 cells were grown in McCoy's medium (Invitrogen). All media was supplemented with 10% (v/v) fetal calf serum (Invitrogen), 1% (v/v) non-essential amino acids (Invitrogen), 1% (v/v) sodium pyruvate (Invitrogen), 2 mM L-glutamine (Invitrogen), 100 μg/mL of streptomycin (Invitrogen), 100 U/ml penicillin (Invitrogen), and 0.28 μg/mL of fungizone.
(§2) To further examine the spectrum of anti-proliferative activity, Dp4cycH4mT was tested against pancreatic cancer in vitro, performing MTT proliferation assays with PANC 1, MIAPaCa-2, CFPAC-1 and CAPAN-2 pancreatic cancer cells. As a comparison, currently used treatments for pancreatic cancer including gemcitabine and 5-fluorouracil were also tested. The iron chelator, DFO, was included as a positive control.
(§3) Table 2A. Anti-proliferative activity of Dp4cycH4mT against pancreatic cancer cell lines. Growth and antiproliferative activity IC50 (μM) values of Dp4cycH4mT in a variety of pancreatic cell lines and in comparison to DFO and the clinically used drugs gemcitabine and 5-fluorouracil as determined by the MTT assay. Cells were seeded and allowed to attach to wells for 24 h and then incubated for 72 h at 37° C. with control medium or the chelators. Results are mean±SD (3 experiments).
(§4) Table 2B. Anti-proliferative activity of Dp4cycH4mT against pancreatic cancer cell lines. IC90 (μM) values of Dp4cycH4mT in a variety of pancreatic cell lines and in comparison to DFO and the clinically used drugs gemcitabine and 5-fluorouracil as determined by the MTT assay. Cells were seeded and allowed to attach to wells for 24 h and then incubated for 72 h at 37° C. with control medium or the chelators. Results are mean±SD (3 experiments).

The subject of experiment [3] is PANC 1 pancreatic cancer cells. Put plainly: MTT proliferation assay, PANC 1. Particulars: Homo sapiens; PANC 1, MTT, 72 h. It counts as cell-based. The protocol: as §1, §2, §3, §4
The test system of experiment [4] is CAPAN-2 pancreatic cancer cells. Put plainly: MTT proliferation assay, CAPAN-2. It is filed as cell-based. The settings on record: Homo sapiens; CAPAN-2, MTT, 72 h. How it is done:
as §1, §2, §3, §4

Experiment [5] concerns CFPAC-1 pancreatic cancer cells. Put plainly: MTT proliferation assay, CFPAC-1. It counts as cell-based. Particulars: Homo sapiens; CFPAC-1, MTT, 72 h. How it is done:
as §1, §2, §3, §4

Experiment [6] has as its system pancreatic cancer cell lines. The experiment is described as follows: MTT proliferation assays, pancreatic cancer cell line panel (comparison of IC50). It counts as cell-based. The settings on record: in 2 out of the 4 cell types. The protocol:
as §1, §2
Table 2A. Anti-proliferative activity of Dp4cycH4mT against pancreatic cancer cell lines. […]. Cells were seeded and allowed to attach to wells for 24 h and then incubated for 72 h at 37° C. with control medium or the chelators. Results are mean±SD (3 experiments).

A further experiment has as its system p21. Put plainly: Western blot analysis, p21 expression. It is filed as cell-based. The settings on record: MIAPaCa-2 cells. The protocol:
Western analysis was performed via established protocols (Gao, J. and D. R. Richardson (2001). Blood 98: 842-50). The primary antibodies used were against NDRG1 (Abcam; UK), p21, cyclin D1, transferrin receptor 1 (TfR1; Santa Cruz, CA, USA) and β-actin (Sigma-Aldrich), with secondary HRP-conjugated goat and mouse antibodies (Sigma-Aldrich).
Dp4cycH4mT was examined to determine whether it could up-regulate NDRG-1 expression. To further evaluate the effect of the chelator Dp4cycH4mT on other key molecules involved in cell cycle progression, the expression of the cyclin-dependent kinase inhibitor, p21, as well as cyclin D1 in MIAPaCa-2 cells was also examined.
On the technique in general: A western blot detects proteins with antibodies after separation by electrophoresis.

Some results are limits rather than exact numbers.

As a reminder, the IC50 is the concentration that gives 50% inhibition. Read a low IC50 as inhibition by little substance. Usually IC90 stands for the point of the concentration-response curve where the effect stands at 90%.

On to `CN(C(=S)NN=C(c1ccccn1)c1ccccn1)C1CCCCC1` [Dp4cycH4mT, di-2-pyridylketone 4-cyclohexyl-4-methyl-3-thiosemicarbazone], for which the IC50 in experiment [1] amounted to 13 nM; in experiment [2] it was 9 ± 0.3 nM; in experiment [3], 50 ± 2 nM; in experiment [4] it was 40 ± 8 nM; in experiment [5], 400 ± 200 nM. The 90% effect concentration (IC90) in experiment [2] is > 5 µM; in experiment [3] it was > 5 µM; in experiment [4] it was > 5 µM; in experiment [5], 5.4 ± 1.1 µM. The “IC50 fold lower compared to 5-fluorouracil” value in experiment [6] is ≥ 1000 fold. In experiment [6], the “IC50 fold lower compared to gemcitabine” value is “at least 100 fold”. Besides, in the experiment on p21, the p21 expression result is recorded as “markedly (p<0.05) increasing”.

(Values after patent publication US8927580B2, “Thiosemicarbazone compounds and use in the treatment of cancer” (Oncochel Therapeutics LLC, priority 2010, dated 2015).)
